Results reported in US5786367A, “Cyclic amide derivatives” (Otsuka Pharmaceutical Co., Ltd., priority 1994, dated 1998).
Like-named read-outs stand apart in the source and are kept apart here.

Legend:
skin erythema = assay: Activity for inhibiting skin erythema caused by ultraviolet radiation; type: in vivo, albino guinea pig (Hartley strain, female, 7-8 week age); details: for inhibition in vivo at 3 %: Cavia porcellus, UV 1.3-1.5 mW/cm^2 for 30 minutes, measured 24 hours later; for 50% inhibitory concentration (IC50) for inhibiting the skin erythema: three concentrations within 0.1 to 10%
Experimental: The hairs covering in the back of albino guinea pig (Hartley strain, female, 7-8 week age) were shaved by using an electric hair clippers and a shaver. In the next day, the guinea pig was fixed in Bowlman's cage, then a light shield tape (adhesive plaster for patch test), having 4 round holes of 1.5 cm in diameter was adhered on the hair clipped portion so as to provide 4 sites (round holes) to be exposed to the ultraviolet rays. […] Each one of the test sample solutions was prepared by dissolving each test compounds in three kinds of concentrations within 0.1 to 10%, and applied.

[1] = system: skin homogenate of guinea pig; assay: Activity for inhibiting the formation of lipid peroxides (ultraviolet-B irradiated skin homogenate, TBA method); type: biochemical, albino guinea pig (Hartley strain, female); details: test compound 10^-4 M; UV 9.5 mW/cm^2, 60 minutes
Experimental: The activity for inhibiting the formation of lipid peroxides which are increasingly formed by exposed to the ultraviolet-B radiation to the skin homogenate of guinea pig was determined by a procedure of thiobarbituric acid method (TBA method).
The activity for inhibiting the formation of lipid peroxides can be evaluated by degree of decreasing the optical absorbance of the condensate of thus formed malondialdehyde with thiobarbituric acid, by adding a test sample of the cyclic amide derivative of the present invention to the homogenate.
That is, the hairs covering in the back of an albino guinea pig (Hartley strain, female) were clipped by using an electric hair clippers under anesthesia. After the enucleation of the hair clipped portion of the skin, the subcutaneous tissue of this skin was removed in cold physiological saline. Distilled water in an amount of 9 times by weight of the skin tissue was added to this skin subcutaneous tissue, then was subjected to homogenation and centrifugation (600 g, for 5 minutes) to obtain the supernatant liquid. 5 Microliters each of test sample solutions of various concentrations was added to 0.5 ml each of the supernatant liquid, then the ultraviolet ray in the intensity of 9.5 mW/cm^2 was irradiated for 60 minutes by using fluorescent lamps (TOSHIBA FL-20SE, manufactured by Toshiba Corporation) as a light source. As to the reference sample solution, the solvent for dissolution of the test compound was used in place of the test sample solution. After ultraviolet radiation, the amount of lipid peroxide being formed in the sample solution (TBA value) was measured by TBA method (cf. Analytical Biochemistry, 1979, Vol. 95, pp. 351-358), and the inhibition rate of lipid peroxide formation shown by the test sample was calculated by the following formula: [formula]

[2] = system: lens samples obtained from rat; assay: Activity for preventing the lens opacity (UV-irradiated cultured lens); type: cell-based, rat (Wistar strain, male, 6-10 week age); details: 1 h, read-out: Rate of the activity for preventing lens opacity
Experimental: The lens samples obtained from rat (Wistar strain, male, 6-10 week age) were placed on 24-well plate, and were cultured in DEMEM (Dulbecco's modified Eagle's medium manufactured by Nissui Pharmaceutical Co., Ltd.) at 37° C. overnight, a 5% CO2 environment was used. Under dissecting microscope observation, the lens samples having transparency were only selected to use the test. Thus selected lens samples were transferred to midium (1 ml) in which the test compound was dissolved. (As to the reference test, the medium without containing the test compound was used.) The ultraviolet rays in the intensity of 8.8 mW/cm^2 was irradiated for 60 minutes by using a fluorescent lamp (TOSHIBA FL-20SE) to the lens samples. After the irradiation, the medium was replaced to new medium containing the test compound and further cultured overnight. The medium without the test compound was replaced everyday during 3 days. By using a dissecting microscope, opacity of the lens samples were observed. The degrees of opacity of the lens samples was determined by deviding the field of vision into 8 fields as follows: Score 0: transparent; Score 1: some loss of transparency; and Score 2: completely opaque. Rate of activity for preventing the lens opacity was calculated from the following formula: [formula]

[3] = 3% concentration of test compound, 10 μl topical, read-out: Rate of activity for inhibiting the skin erythema
[4] = test compound 1 x 10^-4 M, UV 8.8 mW/cm^2, 60 minutes

Row | 50% inhibitory concentration (IC50) for inhibiting the skin erythema (skin erythema; topical) [concentration in %] | SMILES | inhibition in vivo at 3 % (skin erythema; [3]) [%] | Inhibition rate of lipid peroxide formation [1] [%] | inhibition at 100 µM [2, 4] [%] | other results
1 | 5.6 | C=CCc1cc2c(c(CC=C)c1O)CCC(=O)N2C [Example 40] | 23 | 84 | – | –
2 | 2.0 | C=CCc1cc2c(c(CC=C)c1O)CCC(=O)N2CC(C)C [Example 41] | 57 | 96 | 55 | –
3 | 1.6 | C=CCc1cc2c(c(CC=C)c1O)CCC(=O)N2CC1CCCCC1 [Example 44] | 63 | 100 | – | –
4 | – | C=CCc1cc2c(c(CC=C)c1O)CCC(=O)N2C/C=C(\C)CCC=C(C)C [Example 48] | 37 | 95 | – | –
5 | – | C=CCOc1cccc(CN2C(=O)CCc3c2cc(CC=C)c(O)c3CC=C)c1 [Example 50] | 36 | 89 | – | –
6 | – | C=CCc1cc2c(c(CC=C)c1O)CCC(=O)N2c1ccc(OC)c(OC)c1 [Example 60] | 27 | 83 | – | –
7 | 6.5 | C=CCc1c(O)ccc2c1CCC(=O)N2CCCCCCCCCCO [Example 63] | 35 | 81 | – | –
8 | – | C=CCc1cc2c(c(CC=C)c1O)CCC(=O)N2CCCN.Cl [Example 67, 1-(3-aminopropyl)-5,7-diallyl-3,4-dihydro-6-hydroxy-2(1H)-quinolinone hydrochloride] | 31 | 75 | 40 | –
9 | – | C=CCc1cc2c(c(CC=C)c1O)CCC(=O)N2CCCNC(N)=O [Example 68, 5,7-diallyl-3,4-dihydro-6-hydroxy-1-(3-ureidopropyl)-2(1H)-quinolinone] | 43 | 68 | – | –
10 | – | C=CCc1cc2c(c(CC=C)c1O)CCC(=O)N2C(C)C [Example 98] | – | – | 45 | –
11 | – | C=CCc1cc2c(c(CC=C)c1O)CCC(=O)N2CCCCCCCC [Example 101] | 37 | – | 55 | –
12 | – | C=CCc1cc2c(c(CC=C)c1O)CCC(=O)N2CCOC(C)=O [Example 103, 1-(2-Acetyloxyethyl)-5,7-diallyl-3,4-dihydro-6-hydroxy-2(1H)-quinolinone] | – | – | 57 | –
13 | – | C=CCc1cc2c(c(CC=C)c1O)CCC(=O)N2CCO [Example 109, 5,7-diallyl-3,4-dihydro-6-hydroxy-1-(2-hydroxyethyl)-2(1H)-quinolinone] | – | – | 66 | –
14 | – | C=CCc1cc2c(c(CC=C)c1O)CCC(=O)N2C(C)C(=O)O (stereo not drawn) [Example 115, Sodium 2-(5,7-Diallyl-6-hydroxy-1,2,3,4-tetrahydro-2-oxoquinolin-1-yl)propionate] | – | – | – | inhibition in vivo at 3 % (skin erythema; topical, 24 h, read-out: Rate of activity for inhibiting the skin erythema, 3% concentration of test compound, 10 μl topical): 33%; inhibition at 100 µM [2]: 63%
15 | – | O=C1O[C@H]([C@@H](O)CO)C(O)=C1O [Vitamin C, reference compound] | – | – | -11 | inhibition at 1000 µM ([2]; test compound 10 x 10^-4 M, UV 8.8 mW/cm^2, 60 minutes): 84%

Row | SMILES | 50% inhibitory concentration (IC50) for inhibiting the skin erythema (skin erythema; topical) [concentration in %] | inhibition in vivo at 3 % (skin erythema; [3]) [%] | Inhibition rate of lipid peroxide formation [1] [%] | inhibition at 100 µM [2, 4] [%] | other results
16 | C=CCc1cc2c(c(CC=C)c1O)CCC(=O)N2CC(=O)O [Example 76, 1-(carboxymethyl)-5,7-diallyl-3,4-dihydro-6-hydroxy-2(1H)-quinolinone] | 3.1 | 50 | 68 | – | –
